Test results as given in patent publication US12070472B2, “Treatment of drug resistant proliferative diseases with telomerase mediated telomere altering compounds” (The Board of Regents of the University of Texas System, priority 2016, dated 2024).

Key:
BJ-hTERT cells = assay: Telomere dysfunction induced foci (TIF) assay in BJ-hTERT cells; format: cell-based, human; conditions: 10 μM, after 48 hours
Description: TIFs were quantified using Imaris software.
Normal BJ cells and […] BJ-hTERT cells were seeded in chamber slides. Following cell attachment, 6-thio-dG (10 μM) and 6-thio-G (10 μM) were added to fresh medium of each cell type. […] A control was used for each cell type as well, where DMSO was added to fresh medium of each cell type. […] These include almost all human cancer cells and certain human diseases involving acute and chronic inflammation.

BJ = assay: GI 50 determination, BJ; format: cell-based; conditions: Homo sapiens; BJ normal cell line
Description: (§1) Cells of each type listed in Table 2 were seeded in chamber slides.

A549 = assay: GI 50 determination, A549; format: cell-based; conditions: Homo sapiens
Description: as §1

H2882 = assay: GI 50 determination, H2882; format: cell-based; conditions: Homo sapiens, NCI-H2882
Description: as §1

HCC827 = assay: GI 50 determination, HCC827; format: cell-based; conditions: Homo sapiens
Description: as §1

BJ fibroblast cells = assay: Telomere length assay (TRF), BJ fibroblasts long-term culture; format: cell-based, human; conditions: 10 weeks, compared to untreated control
Description: For long-term cellular experiments, HCT116 (1,000 cells/cm^2) and BJ (10,000 cells/cm^2) cells were fed with 6-thio-dG (1, 3, 10 μM) containing medium every three days. The cells were counted and replated every week for 10-16 weeks. Additionally, HCT116 cells (1,000 cells/cm^2) were fed with 6-thio-G (1, 3, 10 μM) every three days and each week cells were counted, collected for TRF (Telomere Restriction Fragment) analysis and replated. HCT116 cells, following treatment with 10 μM 6-thio-dG for 12 weeks, were then treated with a combination of 10 μM 6-thio-dG and 3 μM GRN163L for 2-4 weeks.

HCT116 cells [1] = system: HCT116 cells
Description: Following the treatment cells were seeded at different densities and the cultured for 10 days.

HCT116 cells [2] = assay: Tumor growth in xenograft animal model with HCT116 cells; format: in vivo, mice; conditions: 2 mg/kg IP every two days, 6 injections
Description: Doses of 2 mg/kg of 6-thio-dG and 2 mg/kg of 6-thio-G were IP injected every two days for a total of 6 injections into mice. DMSO injections were used for the control. The volume of the tumor was measured.

[3] = system: A549 human lung cancer cells; assay: Tumor growth in xenograft animal model with A549 cells; format: in vivo, mice; conditions: 2.5 mg/kg every day
Description: Doses of 2.5 mg/kg of 6-thio-dG and 2.5 mg/kg of 6-thio-G were injected every day into mice after tumor implantation and providing time for tumor initiation. DMSO injections were used for the control. The volume of the tumor was measured.

Toxicity testing in rats = conditions: for mortality: rats
Description: Six rats were treated with 15 mg of 6-thio-dG/kg of body weight every two days. […] Another 5 rats were treated with 50 mg of 6-thio-dG/kg of body weight every other day.

[4] = mouse, in vivo, 5 mg/kg
Description: Six WT mice were treated with 1.67 mg of 6-thio-dG/kg of body weight daily. Six WT mice were treated with 1.67 mg of 6-thio-G/kg of body weight daily. Six WT mice were treated with 5 mg of 6-thio-dG/kg of body weight daily. Six WT mice were treated with 5 mg of 6-thio-G/kg of body weight daily. The mice were given the appropriate dosage and weighed daily for 25 days.

[5] = system: HCT116 colon cancer cell line; assay: CellTitreGlo survival, 7 days, HCT116; format: cell-based; conditions: Homo sapiens, HCT-116, 168 h
Description: (§2) Four different cell lines were treated with nine different doses of 6-thio-dG for 7 days. HCT116 colon cancer cell line (FIG. 9A), HCEC1 normal colonic cell line (FIG. 9C), A549 non-small cell lung cancer cell line (FIG. 9B), and BJ normal fibroblast cell line (FIG. 9D) were each treated. Survival fraction was measured by CellTitreGlo luminescent cell viability assay (Promega).

[6] = system: A549 non-small cell lung cancer cell line; assay: CellTitreGlo survival, 7 days, A549; format: cell-based; conditions: Homo sapiens, 168 h
Description: as §2

[7] = system: BJ normal fibroblast cell line; assay: CellTitreGlo survival, 7 days, BJ; format: cell-based; conditions: Homo sapiens, 168 h
Description: as §2

H1693 = assay: NSCLC panel sensitivity to 6-thio-dG, H1693; format: cell-based, human
Description: (§3) A panel of NSCLC cell lines was tested for sensitivity to 6-thio-dG by performing a cell count after 1 week treatment. Briefly, cells were treated with 3 μM 6-thio-dG every three days for 1 week. Viable cells were counted at the end of treatment. Each 6-thiodG treated cell line was normalized to its DMSO treated control.
(§4) Two isogenic pairs of NSCLC cell lines were studied for sensitization to 6-thio-dG treatment.

H324 = assay: NSCLC panel sensitivity to 6-thio-dG, H324; format: cell-based; conditions: Homo sapiens
Description: as §3, with “control. The results of the cell count are depicted in FIG. 12, with the various cell lines arranged in descending resistance to 6-thio-dG from left to right. […] The IC50 values for the whole panel of tested cells are depicted in FIG. 13. The IC50 values for tested cells are depicted as a column scatter graph in FIG. 14.” for “control.”

H2073 = assay: NSCLC panel sensitivity to 6-thio-dG, H2073; format: cell-based; conditions: Homo sapiens, NCI-H2073
Text: as §4

[8] = system: paclitaxel/carboplatin resistant H1299; assay: 6-thio-dG on paclitaxel/carboplatin resistant H1299, cell count; format: cell-based, human; conditions: 1, 3, 10 μM every three days for one week
Description: A cell count was performed to measure cell growth/death.

[9] = system: HCC4017 paclitaxel/carboplatin resistant cell line; assay: 6-thio-dG on HCC4017 paclitaxel/carboplatin resistant line; format: cell-based, human; conditions: 1, 3, 10 μM
Description: The resulting resistant lines and their parents were tested for the effect of 6-thio-dG at 1, 3, and 10 μM concentrations.

HCT116 cells [10] = conditions: 3 μM
Description: The TIF assay is based on the co-localization detection of DNA damage by an antibody against DNA damage markers such as gamma-H2AX and telomeres by the telomeric protein TRF2. Briefly, HCT116 cells were plated in 4-well chamber slides and after the cells attached to the surface, either 3 μM 6-thio-dG or 3 μM 6-thio-G was added to the medium at different time points (0, 30 min, 12 h, 24 h, 48 h, 72 h). Slides were rinsed once with PBS and fixed in 4% paraformaldehyde in PBS for 10 min. Then, cells were washed twice with PBS and permeabilized in 0.5% Nonidet-P40 in PBS, blocked with 0.5% Bovine Serum Albumin (BSA) and 0.2% fish gelatin in PBS for 30 min. gamma-H2AX (mouse) (Millipore, Billerica, MA) was diluted 1:1000 and TRF2 (rabbit) (Abcam, Cambridge, MA) was diluted 1:200 in blocking solution and this primary Ab mixture was incubated on cells for 2 h. After three washes with PBST (1×PBS in 0.1% Triton) and 3 washes with PBS, cells were incubated with Alexaflour 488 conjugated goat anti rabbit (1:500) (Invitrogen, Grand Island, NY) and Alexaflour 568 conjugated goat anti mouse (1:500) (Invitrogen) for 40 min, then washed six times with PBS. After drying, the slides were mounted with Vectashield mounting medium with DAPI (Vector Laboratories, Burlingame, CA). […] TIFs were quantified using Imaris software. […]

## Nc1nc2c(ncn2[C@H]2C[C@H](O)[C@@H](CO)O2)c(=S)[nH]1 [6-thio-dG, 6-thio-2′-deoxyguanosine]
BJ-hTERT cells
  >4 TIFs per nucleus background subtracted: 14
BJ
  GI50: > 100 µM
A549
  GI50: 2.1 µM
H2882
  GI50: 0.4 µM
HCC827
  GI50: 0.8 µM
BJ fibroblast cells
  telomere shortening (TRF): did not show enhanced telomere shortening
HCT116 cells [1]; 3 μM, after 72 hours irradiated, cultured 10 days
  survival fraction: lower than cells treated with 6-thio-G
HCT116 cells [1]; cell titer glow luminescent assay
  cell viability: lower than cells treated with 6-thio-G
HCT116 cells [2]
  rate of tumor growth (tumor volume): rate of tumor growth was less
[3]
  histology of residual tumors: mostly fibrotic and often associated with apoptotic and inflammatory cells
[3]; compared to control and 6-thio-G
  rate of tumor growth (tumor volume): rate of tumor growth was less
Toxicity testing in rats; rat, in vivo, 15 mg/kg
  signs of impaired function in surviving animals: no signs of impaired function
Toxicity testing in rats; 15 mg/kg every two days, six rats
  mortality: One rat died after 6 injections
Toxicity testing in rats; 50 mg/kg every other day, 5 rats
  mortality: All rats died after 12 days
[4]
  weight loss: only modest weight loss
[5]
  IC50: 1.1 µM
[6]
  IC50: 2.4 µM
[7]
  IC50: > 100 µM
H1693; H1693, 3 μM every three days for 1 week, normalized to DMSO control
  survival rate: greater than 50%
H1693; Homo sapiens, NCI-H1693
  IC50: > 100 µM
H324
  IC50: 2.2 µM
H2073
  IC50: > 0.7 µM
[8]
  sensitivity (cell count): sensitive to all three concentrations
[9]
  sensitivity: still sensitive to 6-thio-dG
HCT116 cells [10]; after 72 h
  increase in telomeric DNA damage as compared to 6-thio-G: 2.8 fold
HCT116 cells [10]; compared to 6-thio-G
  genomic DNA damage: overall increase in genomic DNA damage
